Measured values taken from paper PMC6620326, “Structural characterization of life-extending Caenorhabditis elegans Lipid Binding Protein 8” (Scientific Reports, 2019).

Experiments:
[1] = molecular target: T1, LBP-8 (Caenorhabditis elegans, UniProt O02324); experiment: […],8-ANS fluorescence displacement; format: binding; settings: PBS pH 8.0, 37 °C, 250 nM protein, 800 nM 1,8-ANS, 1% ethanol; refolded delipidated protein; competitive with 1,8-ANS
T1 construct: full-length residues 1-137, pMCSG7 His6-TEV, E. coli BL21(DE3); His tag cleaved by TEV
T1 sequence (O02324 1-137): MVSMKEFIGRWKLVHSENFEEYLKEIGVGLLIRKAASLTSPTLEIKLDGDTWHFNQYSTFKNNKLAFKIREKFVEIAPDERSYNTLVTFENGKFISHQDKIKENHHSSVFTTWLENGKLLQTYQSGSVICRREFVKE

[2] = molecular target: T1, LBP-8; experiment: differential scanning fluorimetry, SYPRO orange; format: binding; settings: 20 µM ligand, 7 µM refolded protein, 1% ethanol; destabilising shift

SMILES: CCCCCCCC/C=C\CCCCCCCC(=O)NCCO [OEA, oleoylethanolamide]
- Ki [1]: oleic acid and OEA, and both had very similar Ki’s

SMILES: CCCCCCCC/C=C\CCCCCCCC(=O)O [OA, oleic acid]
- decrease in Tm vs apo [2]: ~ 4 °C
- Ki [1]: oleic acid and OEA, and both had very similar Ki’s
